# Experimental data as given in patent US20050169914A1, “Novel functions for decay accelerating factor (DAF) in inflammation” (priority 2003, published 2005).
# Where no end group is shown, it is not given here. The star is where a group is joined. Biotin = O=C1N[C@H]2[C@H](CS[C@H]2CCCCC(=O)*)N1
# Legend:
# [1] = system: OE-1 mAb binding to intact epithelial cell surface protein; experiment: Peptide blocking of OE-1 binding, cell surface ELISA on intact T84 cells; conditions: concentration-dependent
# [2] = system: PMN transmigration across epithelial monolayer; experiment: Kinetic PMN transmigration assay with DAF mimetic peptides; format: cell-based, human; conditions: for rank order of potency in kinetic PMN transmigration assay: compared to no peptide controls
# Description: Transmigration assay. PMN transmigration assays were performed as previously described (Nicholson-Weller et al., 1994, J. Lab. Clin. Med. 123: 485-91). All epithelial experiments were performed in the physiologically-relevant basolateral-to-apical direction (i.e. inverted monolayers), unless otherwise indicated, and all HMVEC transmigration studies were performed in the apical-to-basolateral direction. Briefly, PMN (1×10^6) were added to the upper chambers of transwell inserts in which T84, KB or Caco2 cell monolayers, as indicated, were plated on the opposing side. A chemotactic gradient was established by adding n-formyl-methionyl-leucyl-phenylalanine (fMLP) to the lower chambers (1 μM for Caco2 and T84 epithelia and 10 nM for KB cells and HMVEC). PMN transmigration was carried out at 37° C. for 1 hour with KB and HMVEC monolayers and 2 hrs for T84 monolayers. Transmigrated PMN were quantified by assaying for the PMN azurophilic marker myeloperoxidase (MPO), as previously described (Lisanti et al., 1990, J. Memb. Biol. 113: 155-167). Briefly, transmigrated PMN were lysed by the addition of Triton X-100 to a final concentration 0.5%. The samples were acidified with citrate buffer (final concentration 100 mM; pH 4.2). An aliquot of sample (70 μl) was added to an equal volume of ABTS solution (1 mM ABTS (2.2′-Azino-bis(3-ethylbenzo-thiazoline-6-sulfonic acid), 0.03% H2O2, 100 mM sodium citrate buffer; pH 4.2) in a 96-well plate. The resulting color was quantitated on a plate reader at 405 nm. For kinetic transmigration and post-transmigration adhesion assays, monolayers were removed at the desired time point and placed in a new 24-well plate with HBSS and spun at 50×g for 5 min to dislodge PMN adherent to the monolayer (Liu et al., 2001, J. Biol. Chem. 276: 40156-66). PMN were quantified by MPO assay as stated above. Where indicated, polyclonal DAF antisera (a kind gift from Dr. B. Paul Morgan, University of Wales) or control polyclonal platelet-endothelial cell adhesion (PE-CAM, a kind gift from Dr. Joyce Bischoff, Children's Hospital and Harvard Medical School) antisera were used to assess transmigration.
# Phage panning of OE-1. The OE-1 binding epitope was analyzed using phage display (Burritt et al., 1998, J. Biol. Chem. 273:24847-52). Briefly, sepharose-coupled OE-1 was incubated with 20-μL aliquots of the random 9-mer LL9 phage library (˜5×10^10 phage) in 1 mL HBSS containing 0.1% bovine serum albumin (phage buffer) for 2 hours at 4° C. or for 1 hour at 20° C. in a 1.5-ml microcentrifuge tube as described previously (Mazzucchelli et al., 1999, Blood 93: 1738-48). Antibody complexes were then washed five times with phage buffer and bound phage were eluted for 5 minutes in 2 mL of 0.1M glycine (pH 2.2) followed by addition of phage buffer containing 0.5% Tween 20 to the remaining cell pellet. After neutralization with Tris buffer pH 8.1, the titer of phage was determined in each fraction by plaque assay according to standard procedures. Phage elutes were then amplified in “starved” K91 E. coli on solid LB agar containing 75 μg/mL kanamycin, purified by precipitation with polyethylene glycol, and resuspended in 600 μL NaCl/HEPES buffer. An aliquot (20 μL) of purified phage was subsequently re-applied to a new aliquot of sepharose-coupled OE-1 for a total of three affinity purification and two amplification steps. Individual phage clones were then isolated, amplified, and the random peptide sequences were deduced after sequencing the unique nucleotide region of the pIII protein. As a control for OE-1-specific selection, parallel phage affinity purification steps were carried out in a 1.5-mL microcentrifuge tube in the absence of OE-1, and a sample of the recovered phage was analyzed by sequencing of the DNA insert. […]
# surface of intact PMN = experiment: Binding of biotinylated peptide to intact PMN (rhodamine-streptavidin fluorescence); parameters: species or system human; conditions: peptide 10 μg/ml, 4° C., 1 hr
# Description: In subsets of experiments, peptides were biotinylated (sulfo-NHS-Biotin, Pierce, Rockford, Ill.), purified by reversed phase HPLC, and tested for binding to PMN. Briefly, PMN (10^7 PMN in 1 ml) were incubated with biotinylated peptide DAF peptide or control peptide (each at 10 μg/ml) at 4° C. for 1 hr. PMN were washed three times in HBSS, and incubated with rhodamine-labeled steptavidin (Roche Diagnostics, Indianapolis, Ind.). Samples were aliquoted on a 96 well plate and fluorescence intensity (excitation, 550 nm; emission, 580 nm), expressed as relative fluorescence units (RFU) was measured on a fluorescent plate reader (Cytofluor™2300, Millipore Inc., Bedford, Mass.).
# CD55 mRNA expression = experiment: Hypoxia-induced CD55 mRNA expression in Caco2 cells with transcriptional inhibitor; format: cell-based, human; conditions: DRB 10 μM
# Description: First, it was determined whether hypoxia-induced CD55 results from increased transcriptional activity. Caco2 cells were subjected to hypoxia in the presence or absence of the transcriptional inhibitor 5,6-dichlorobenzimidazole riboside (DRB, 10 μM) and assessed for changes in CD55 mRNA expression. […] Consequently, increases in CD55 by hypoxia required new mRNA synthesis.
# surface expressed DAF = experiment: DAF suppression in Caco2 cells (immunoprecipitation of surface biotinylated protein); format: cell-based, human; conditions: Caco2, relative to oligonucleotide controls, n=3
# Description: DAF suppression studies. Caco2 cells were chosen for these experiments because they are more easily transfected than T84 cells. Confluent Caco2 monolayers were dislodged from T175 flasks with trypsin. Cells were washed once in serum-free DMEM. To 100 μl serum free media, 10 μl DAF siRNA ribonucleotide (20 μM each of sense 5′-[…]dTdT-3′ (SEQ ID NO: 31) and antisense 3′-dTd[…]-5′ (SEQ ID NO: 32), synthesized by Xeragon, Inc., Germantown, Md.) or 10 μl phosphorothioate derivatives of DAF antisense oligonucleotide (20 μM; 5′-[…]-3′ (SEQ ID NO: 33), synthesized by Oligo's Etc., Wilsonville, Oreg.) was added. In both cases, a control oligonucleotide (5′-ATG GAG GGC GCC GGC-3′, SEQ ID NO: 34) was used in parallel. To these solutions 10 μl Superfect transfection reagent (Qiagen, Valencia, Calif.) was added. The tubes were vortexed and incubated at room temperature for 10 min to allow transfection complexes formation. Following this incubation, 400 μl of serum containing media was added to the complexes, followed by 800 μl of cell suspension. […]
# As a third approach, antisense oligonucleotides and siRNA technologies were utilized to diminish surface expressed DAF and examined the kinetics of PMN migration across such monolayers of epithelia. […] In panels B and C, the influence of siRNA (diamonds), antisense oligonucleotide (squares) on the kinetics of transmigration was assessed. […]
# [3] = system: PMN transmigration across Caco2 monolayers; experiment: Kinetic PMN transmigration across DAF-depleted Caco2 monolayers; format: cell-based, human
# Description: Transmigration assay. PMN transmigration assays were performed as previously described (Nicholson-Weller et al., 1994, J. Lab. Clin. Med. 123: 485-91). All epithelial experiments were performed in the physiologically-relevant basolateral-to-apical direction (i.e. inverted monolayers), unless otherwise indicated, and all HMVEC transmigration studies were performed in the apical-to-basolateral direction. Briefly, PMN (1×10^6) were added to the upper chambers of transwell inserts in which T84, KB or Caco2 cell monolayers, as indicated, were plated on the opposing side. […] Transmigrated PMN were quantified by assaying for the PMN azurophilic marker myeloperoxidase (MPO), as previously described (Lisanti et al., 1990, J. Memb. Biol. 113: 155-167). […] An aliquot of sample (70 μl) was added to an equal volume of ABTS solution (1 mM ABTS (2.2′-Azino-bis(3-ethylbenzo-thiazoline-6-sulfonic acid), 0.03% H2O2, 100 mM sodium citrate buffer; pH 4.2) in a 96-well plate. The resulting color was quantitated on a plate reader at 405 nm. For kinetic transmigration and post-transmigration adhesion assays, monolayers were removed at the desired time point and placed in a new 24-well plate with HBSS and spun at 50×g for 5 min to dislodge PMN adherent to the monolayer (Liu et al., 2001, J. Biol. Chem. 276: 40156-66). PMN were quantified by MPO assay as stated above. […]
# [4] = system: OE-1 mAb binding to denatured protein; experiment: Peptide blocking of OE-1 binding, western blot of T84 epithelial lysates; conditions: concentration-dependent
# Description: Immunoblotting experiments. Indicated cells were grown to confluency on 100 mm plastic Petri dishes. The monolayers were lysed for 10 min in 1 ml lysis buffer (150 mM NaCl, 25 mM Tris, pH 8.0, 5 mM EDTA, 2% n-octylglucoside, and 10% mammalian tissue protease inhibitor cocktail; Sigma, St. Louis, Mo.), scraped and collected into microfuge tubes. After spinning at 14,000×g to remove cell debris, the pellet was discarded. Proteins were solublized in non-reducing Laemmli sample buffer and heated to 100° C. for 5 minutes. Samples were resolved on a 10% polyacrylamide gel and transferred to nitrocellulose membranes. The membranes were blocked 1 hr at room temperature in PBS supplemented with 0.2% Tween-20 (PBS-T) and 4% BSA. […] The wash was repeated and proteins were detected by enhanced chemiluminescence.
# Phage panning of OE-1. The OE-1 binding epitope was analyzed using phage display (Burritt et al., 1998, J. Biol. Chem. 273:24847-52). […] After neutralization with Tris buffer pH 8.1, the titer of phage was determined in each fraction by plaque assay according to standard procedures. […] As a control for OE-1-specific selection, parallel phage affinity purification steps were carried out in a 1.5-mL microcentrifuge tube in the absence of OE-1, and a sample of the recovered phage was analyzed by sequencing of the DNA insert. […]
molecule,measurement,setting,value
"SPLAQAVRSSSR [scrambled peptide, scrambled control peptide, reference compound]",blocking of OE-1 binding to intact epithelial cell surface protein,[1],but not a scrambled peptide
EVEHAYRSG [Peptide 2],rank order of potency in kinetic PMN transmigration assay,[2]; 1 mM final concentration,Wild-type>Peptide 2=Peptide 1>Peptide 3
EVEHWARSG [Peptide 3],rank order of potency in kinetic PMN transmigration assay,[2]; 1 mM final concentration,Wild-type>Peptide 2=Peptide 1>Peptide 3
Biotin-EVEHWYRSG,fluorescence intensity (binding to surface of intact PMN),surface of intact PMN,"2,188±383 RFU"
"OC[C@H]1O[C@@H](n2cnc3cc(Cl)c(Cl)cc32)[C@H](O)[C@@H]1O [DRB, 5,6-dichlorobenzimidazole riboside]",decrease in CD55 inducibility by hypoxia,CD55 mRNA expression,87±7%
"siRNA: DAF siRNA ribonucleotide, sense 5′-AAUUCCUGGCGAGAAGGACUCdTdT-3′, antisense 3′-dTdTUUAAGGACCGCUCUUCCUGAG-5′ (sense AAUUCCUGGCGAGAAGGACUCNN; antisense NNUUAAGGACCGCUCUUCCUGAG; chemistry not fully specified; one strand is listed 3' to 5')",decrease in surface expressed DAF,surface expressed DAF,63±12%
same,PMN transmigration across treated cells,"[3]; Caco2, relative to mock or oligonucleotide control, p<0.025",significantly diminished
same,apical PMN in DAF-depleted epithelia,"[3]; Caco2, p<0.05 by ANOVA",significant increase over time
AVAHWYRSG [Peptide 1],rank order of potency in kinetic PMN transmigration assay,[2]; 1 mM final concentration,Wild-type>Peptide 2=Peptide 1>Peptide 3
EVEHWYRSG,blocking of OE-1 binding to intact epithelial cell surface protein,[1],blocked OE-1 binding
same,blocking of OE-1 binding to denatured protein,[4],blocked OE-1 binding
same,rank order of potency in kinetic PMN transmigration assay,[2]; 1 mM final concentration,Wild-type>Peptide 2=Peptide 1>Peptide 3
same,apical accumulation of PMN,"[2]; PMN and epithelial pre-exposure to increasing peptide concentrations, p<0.025",increased apical accumulation of PMN
same,PMN transmigration,"[2]; PMN and epithelial pre-exposure to increasing peptide concentrations, p<0.05",diminished PMN transmigration
EVEHWYASG [Peptide 4],effect on PMN transmigration relative to no peptide controls,[2]; 1 mM final concentration,appeared to enhance PMN transmigration
